The text below walks through data of patent publication US6624185B2, “Diarylcycloalkyl derivatives, processes for their preparation and their use as pharmaceuticals” (Aventis Pharma Deutschland GmbH, priority 2001, dated 2003).

This assay addresses T1, human PPARα (Homo sapiens, UniProt Q07869).
T1 construct: expressed in transfected cells; host or cells: HEK (human embryo kidney) cells, stably transfected
T1 sequence (Q07869 1-468): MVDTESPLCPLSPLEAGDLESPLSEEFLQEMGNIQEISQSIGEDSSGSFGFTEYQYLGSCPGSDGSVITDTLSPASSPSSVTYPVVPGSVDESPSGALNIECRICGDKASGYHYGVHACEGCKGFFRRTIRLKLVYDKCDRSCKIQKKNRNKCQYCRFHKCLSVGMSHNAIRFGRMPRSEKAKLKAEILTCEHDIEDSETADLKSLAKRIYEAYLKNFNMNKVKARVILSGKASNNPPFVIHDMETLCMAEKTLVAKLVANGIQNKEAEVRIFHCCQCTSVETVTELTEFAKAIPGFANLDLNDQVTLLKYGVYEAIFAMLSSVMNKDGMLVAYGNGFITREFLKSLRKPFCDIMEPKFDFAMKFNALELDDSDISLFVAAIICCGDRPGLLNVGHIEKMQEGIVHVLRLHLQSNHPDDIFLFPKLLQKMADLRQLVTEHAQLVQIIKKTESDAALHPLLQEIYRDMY
In words: PPARα reporter cell line assay (stably transfected HEK cells, luciferase readout, three-day test). It counts as cell-based. Particulars: agonist activity in stably transfected HEK PPARα reporter cell line, 24 h incubation, luciferase luminescence. The procedure: To analyze the effectiveness of substances which bind to human PPARα, activating it in agonistic manner, a stable transfected HEK cell line (HEK=human embryo kidney) designated here as “PPARα reporter cell line” is used.
The activity of PPARα agonists is determined in a three-day test, described below:
The PPARα reporter cell line is cultivated up to 80% confluence in DMEM medium (#41965-039, Life Technologies) with the following additives: 10% cs-FCS (fetal calf serum, #SH-30068.03, Hyclone), antibiotics (0.5 mg/ml of zeozin [#R250-01, Invitrogen], 0.5 mg/ml of G418 [#10131-019, Life Technologies], 1% penicillin streptomycin solution [#15140-031, Life Technologies]) and 2 mM of L-glutamine (#25030-032, Life Technologies). Cultivation is carried out in standard cell culture bottles (#33111, Becton Dickinson) in a cell culture incubator at 37° C. and 5% CO2. The 80% confluent cells are washed once with 30 ml of PBS (#141-090- 094, Life Technologies), treated with 2 ml of trypsin solution (#25300-054, Life Technologies) at 37° C. for 2 min, taken up in 5 ml of the medium described above and counted in a cell counter. After dilution to 500,000 cells/ml, in each case 100,000 cells are sown into each well of a 96-well microtiter plate having a clear plastic bottom (#3610, Corning Costar). The plates are incubated in a cell incubator at 37° C. and 5% CO2 for 24 h.
The PPARα agonists to be tested are dissolved in DMSO at a concentration of 10 mM. This stock solution is diluted in Phenol-Red-free DMEM medium (#21063-029, Life Technologies) to which 5% of cs-FCS (#SH-30068.03, Hyclone), 2 mM of L-glutamine (#25030-032, Life Technologies) and the antibiotics described above (zeozin, G418, penicillin and streptomycin) had been added.
Test substances are usually tested at 11 different concentrations (10 μM; 3.3 μM; 1 μM; 0.33 μM; 0,1 μM; 0.033 μM; 0.01 μM; 0.0033 μM; 0.001 μM; 0.00033 μM and 0.0001 μM). […] From each well, the medium of the PPARα reporter cell line sown on day 1 is completely removed by aspiration, and immediately, the test substances diluted in medium are added to the cells. Dilution and addition of the substances can be carried out using a robot (Beckman Biomek 2000). The end volume of the test substances diluted in medium is 100 μl per well of a 96-well plate. The DMSO concentration in the assay is always below 0.1% v/v to prevent cytotoxic effects of the solvent.
The test plates are incubated in an incubator at 37° C. and 5% CO2 for 24 h.
The PPARα receptor cells treated with the test substances are removed from the incubator and frozen at −20° C. for 1 h to improve cell lysis. After the plates have thawed (thawing at room temperature for at least 30 min), 50 μl of buffer 1 (Luc-Screen kit #LS1000, PE Biosystems Tropix) are pipetted into each well and the plates are then transferred into an apparatus for measuring luminescence, fitted with a pipetting unit (Luminoscan Ascent, LabSystems). The luciferase reaction in the measurement apparatus is started by pipetting 50 μl of buffer 2 (Luc-Screen kit #LS1000, PE Biosystems Tropix) into each well of the 96-well plate. Addition of buffer to the individual wells is carried out in defined and identical time intervals following the instructions of the manufacturer (LabSystems). All samples are measured exactly 16 min after addition of buffer 2. Measurement time is 10 sec per sample.
The crude data of the apparatus for measuring luminescence are exported into a Microsoft Excel file. Dose-activity curves and EC50 values are calculated using the program XL.Fit according to the instructions of the manufacturer (IDBS).
Take “2-{3-[2-(4-Fluorophenyl)oxazola4-ylmethoxy]cyclohexyloxy}-6-methylbenzoic Acid [Example I]”: the EC50 (usually the midpoint of the concentration-response curve) stood at 1000 pM.
In turn, `Cc1cccc(CC[C@H]2CCC[C@H](OCc3coc(-c4ccc(F)cc4)n3)C2)c1C(=O)O` (racemic) [XXIX, Rac-trans-2-(2-{3-[2-(4-Fluorophenyl)oxazol4-ylmethoxy]cyclohexyl}ethyl)-6-methylbenzoic Acid] came in with an EC50 of 32000 pM.
The same measure for `Cc1cccc(COC[C@H]2CCC[C@@H](OCc3coc(-c4ccc(F)cc4)n3)C2)c1C(=O)O` (racemic) [XXV, Rac-cis-2-{3-[2-(4-Fluorophenyl)oxazol4-ylmethoxy]cyclohexylmethoxymethyl}-6-methylbenzoic Acid]: 13000 pM; for `Cc1cccc(CC[C@@H]2CCC[C@H](OCc3coc(-c4ccc(F)cc4)n3)C2)c1C(=O)O` (racemic) [XXVIII, Rac-cis-2-(2-{3-[2-(4-Fluorophenyl)oxazol-4-ylmethoxy]cyclohexyl}ethyl)-6-methylbenzoic Acid]: 14000 pM; for `Cc1ccccc1-c1nc(COC2CCCC(OCc3cccc(C)c3C(=O)O)C2)c(C)o1` (centres unmarked) [XLI, 2-{3-[2-(2-Methylphenyl)-5-methyloxazol-4-ylmethoxy]cyclohexyloxymethyl}-6-methylbenzoic Acid]: 600 pM.
The same measure for `COc1ccc(-c2nc(COC3CCCC(OCc4cccc(C)c4C(=O)O)C3)c(C)o2)cc1OC` (centres unmarked) [XLIII, 2-{3-[2-(3,4-Dimethoxyphenyl)-5-methyloxazol-4-ylmethoxy]cyclohexyloxymethyl}-6-methylbenzoic Acid]: 580 pM; for `Cc1cccc(COC2CCCC(OCc3nc(-c4cccc(C#N)c4)oc3C)C2)c1C(=O)O` (centres unmarked) [XLIV, 2-{3-[2-(3-Cyanophenyl)-5-methyloxazol-4-ylmethoxy]cyclohexyloxymethyl}-6-methylbenzoic Acid]: 930 pM.
Take `Cc1cccc(COC2CCCC(OCc3nc(-c4cccc(Br)c4)oc3C)C2)c1C(=O)O` (centres unmarked) [XXXII]: the EC50 came out at 970 pM.
The same measure for `COc1cccc(-c2nc(COC3CCCC(OCc4cccc(C)c4C(=O)O)C3)c(C)o2)c1` (centres unmarked) [XXXIV, 2-{3-[2-(3-Methoxyphenyl)-5-methyloxazol4-ylmethoxy]cyclohexyloxymethyl}-6-methylbenzoic Acid]: 820 pM.
For `Cc1cccc(COC2CCCC(OCc3nc(-c4cccc(Cl)c4)oc3C)C2)c1C(=O)O` (centres unmarked) [XXXVI, 2-{3-[2-(3-Chlorophenyl)-5-methyloxazol4-ylmethoxy]cyclohexyloxymethyl}-6-methylbenzoic Acid] the value was 620 pM; for `Cc1cccc(-c2nc(COC3CCCC(OCc4cccc(C)c4C(=O)O)C3)c(C)o2)c1` (centres unmarked) [XXXVIII, 2-{3-[2-(3-Methylphenyl)-5-methyloxazol-4-ylmethoxy]cyclohexyloxymethyl}-6-methylbenzoic Acid], 570 pM.
